# Tests used:
# [1] = Ivashko-Pachima and Gozes 2020; cited from earlier work
# [2] = test system: SHANK3 mouse model (InsG3680 mutation); assay: Open field behavior; type: in vivo; conditions: intranasal, once daily, five days a week for a month
# Method: To this end, mice with the ASD-linked InsG3680 mutation were used. Two behavioral assessments were performed on make mice: • 1) Open field behavior attesting to anxiety and depression (Open field behavioral assessment technology was previously described, e.g.); and • 2) Social recognition behavior, related to autistic traits (the social recognition test was previously described, e.g..
# This surprising finding is of importance as there is a psychiatric illness and regression in individuals with Phelan-McDermid syndrome.
# SHANK3 mice = assay: Eubacteriaceae (EubV3) microbiota; type: in vivo, mouse; conditions: data not shown
# Tyr mice = assay: Behavioral assessments (odor discrimination and others); type: in vivo, mouse; parameters: key to NAP efficacy: cognitive impairments, behavioral deficits: corrections by NAP treatment (+)
# Method: Animals—Animals were housed under a 12-hour light/dark cycle, with food and water ad-libitum. Mouse pups were subcutaneously administrated with NAP [having an amino acid sequence NAPVSIPQ (SEQ ID NO: 2), 25 μg NAP/1 ml saline] as described (8, 12). At 21 days of age mice were administered daily intranasal NAP in vehicle solution (“DD”—7.5 mg/ml of NaCl, 1.7 mg/ml of citric acid, 3 mg/ml of disodium phosphate dihydrate, and 0.2 mg/ml of 50% benzalkonium chloride solution) (0.5 μg NAP/5p1 DD) (8, 9, 12, and U.S. Pat. No. 10,912,819 to Gozes). These mice continued to behavioral analysis as described hereinbelow. The noninvasive intranasal route was chosen as these experiments required daily handling and administration. Age (weeks) of mice during behavioral experiments (mean±SEM) was as follows: Catwalk-9.23±0.15, grooming-10±0.15, social approach-10.5±0.12, odor-discrimination-12.12±0.13, hanging-wire-13±0.14, hotplate-13.18±0.13. Group size was determined following previous experiments (12). Pups were randomly allocated to either the NAP or DD group according to sex and genotype. […]
# Novel object recognition: Briefly, the open field test was used for the first day of habituation since both tests are conducted in the same arena. […] The time spent sniffing/touching each object was measured using the EthoVision XT video tracking system and software (Noldus Inc. Leesburg, VA). Data were analyzed using the discrimination capacity formula: D2=(b−a)/(a+b), where ‘a’ designated the time of exploration of the familiar object and ‘b’ designated the time of exploration of the novel object.
# Social approach: A plexiglas box was divided into three adjacent chambers, each 20 cm (length)×40.5 cm (width)×22 cm (height), separated by two removable doors. […] The next day, each subject mouse was tested in an experiment with three phases, (measured with a simple timer): I and II (5 minutes long), the habituation phases (ensuring no bias), and III (10 minutes long), the experimental phase. […]
# N1E-115 cells = assay: Polymerized vs. soluble tubulin assay; type: cell-based, mouse; conditions: zinc 400 μM, 4 h, peptide 10^−12 M
# Method: Polymerized vs. soluble tubulin assay—To quantify tubulin polymerization and Tau-MT association, a simple assay was performed as previously described. The cells grown to confluence in six-well plates were washed with MT buffer (80 mM PIPES pH 6.8, 1 mM MgCl^2, 2 mM EGTA, 5% Glycerol) and lysed at room temperature for 5 min through centrifugation (300 g), with 150 μl of MT buffer with 0.5% Triton X-100 to extract soluble (cytosolic) tubulin (S). The pelleted cells were rinsed once again with an equal volume of modified RIPA lysis buffer (50 mM Tris-HCL pH 7.4, 150 mM NaCl, 2 mM EGTA, 1% Triton X-100, 0.1% SDS, 0.1% sodium Deoxycholate) to collect the polymerized (cytoskeletal) tubulin (P). The cytosolic and cytoskeletal fractions were each mixed with sample buffer and heated at 95° C. for 5 min. An equal volume of each fraction was analyzed by immunoblotting with Tau, tubulin and actin antibodies, and the results following ECL development were quantified by densitometry (GelQuant.NET software provided by biochemlabsolutions(dot)com).
# It is known that in the presence of extracellular zinc NAP protects MT against degradation by promoting Tau binding to the MT shaft. Polymerized vs. soluble tubulin assay was effected to compare protective activities of NAP and SKIP against MT degradation and Tau-MT dissociation (FIGS. 11F-G). After treatments with zinc (400 μM, 4 h) with and without NAP or SKIP (10^−12 M, 4 h) the cellular-tubulin pool was separated into polymerized and soluble tubulin fractions. The amount of Tau, tubulin, and actin was identified by immunoblotting (FIG. 11F), followed by densitometric quantification (FIG. 11G).
smiles,measurement,setting,value
"CC[C@H](C)[C@H](NC(=O)[C@H](CO)NC(=O)[C@@H](NC(=O)[C@@H]1CCCN1C(=O)[C@H](C)NC(=O)[C@@H](N)CC(N)=O)C(C)C)C(=O)N1CCC[C@H]1C(=O)N[C@@H](CCC(N)=O)C(=O)O [NAP, NAPVSIPQ]",Cell penetration,[1],bioavailable by endocytosis
same,Cumulative duration in the center (open field),[2],significantly increased
same,EubV3 trend to change as a consequence of the SHANK3 mutation,SHANK3 mice,this trend was not observed in the treated mice
same,Odor discrimination,"Tyr mice; Tyr mice, daily intranasal NAP, data not shown",NAP reversal in females
same,"NAP efficacy: cognitive impairments, behavioral deficits","Tyr mice; Tyr mouse (odor), first symbol of cell",+(odor)/+(8)
same,"Behavioral, motor, social and sensory traits","Tyr mice; WT mice, data not shown",varied minor effects
same,Protection against Tau dissociation from MTs,N1E-115 cells,only NAP exhibited protection
same,Protection of polymerized tubulin against zinc-induced decay,N1E-115 cells,protected against zinc-induced decay

# Source: patent publication US20250032580A1, “USE OF ADNF POLYPEPTIDES IN THERAPY” (RAMOT AT TEL-AVIV UNIVERSITY LTD., priority 2021, published 2025)
